Measured values taken from patent EP0352248A1, “Nucleoside derivatives” (priority 1988, dated 1990).

Key:
Format in all cases: cell-based
F5000 cells = experiment: Cellular toxicity, inhibition of cell multiplication, F5000 cells; details: F5000 cells (human embryo cells), conc. 100 µM, cell number after 48 h
Procedure: (§1) Test II Cellular toxicity
(§2) F5000 cells, which are human embryo cells, 1x10⁵ cells per plate, are incubated in Eagle's minimal essential medium, supplemented with Earle's salts, non-essential amino acids, 10 % fetal calf serum, 10 mM hepes, 70 mg/l penicillin and 100 mg/l streptomycin, in absence or presence of test compounds. The number of cells per plate is determined after 48 h. Cells incubated in the absence of test compounds underwent one cell division cycle. The results are given as % inhibition of cell multiplication when the concentration of the compound is 100 µM or 250 µM.

H9 cells = experiment: Cellular toxicity, inhibition of cell multiplication, H9 cells; details: conc. 200 µM, cell number after 48 h
Procedure: as §1
H9 cells, 2x10⁷ cells per plate, are incubated in RPMI-1640 medium containing 10 % fetal calf serum, 70 mg/l penicillin, 100 mg/l streptomycin and 10 mM hepes, in absence or presence of test compounds. The number of cells per plate is determined after 48 h. Cells incubated in the absence of test compounds then underwent two cell division cycles.
as §2, with “The results are given as % inhibition of cell multiplication when the concentration of the compound is 100 µM or 250 µM.” left out

HIV (HTLV-IIIB) = experiment: Effect on HIV in H9 cells (frequency of HIV antigen containing cells, immunofluorescence); details: Human immunodeficiency virus 1; H9 cells exposed to HIV (HTLV-IIIB), 6-7 days; read-out: Concentration (µM) for 50 % inhibition (IC₅₀) of human immuno deficiency virus multiplication in cell culture
Procedure: Test I Effect of compounds of the formula I on HIV in H9 cells
Materials and methods: HIV infection of H9 cells
H9 cells, 10⁵ cells per well on a 24 well plate, suspended in 2 ml RPMI-medium containing 10 % fetal calf serum, 100 µg/ml penicillin, 10 µg/ml streptomycin sulfate and 2 µg/ml polybrene are exposed to HIV (HTLV-IIIB) and different concentrations of the test compounds. The plates are incubated at 37°C in 5 % CO₂ for 6-7 days. The contents in each well is then homogenized with a pipette and transferred to a centrifuge tube. After centrifugation for 10 min at 1500 rpm the supernatant is removed and the cell pellet is analyzed by fixing in methanol on glass plates. Human HIV positive serum diluted 1:80 or 1:160 is added and incubated for 30 min at 37°C. The plate is then washed with phosphate-buffered saline (PBS) containing Ca²⁺ and Mg²⁺. Sheep anti-human conjugate (FITC) is added and after a new incubation the plate is again washed with PBS. Contrast straining is done with Evans blue and after drying the frequency of HIV antigen containing cells is determined in a microscope.

IC50 (HIV (HTLV-IIIB)): < 1 µM
SMILES: Nc1ccn(C2CC[C@H](CO)O2)c(=O)n1 (stereo partly drawn) [VSB 815, 1-(2,3-Dideoxy-alpha,beta-L-ribofuranosyl)-cytosine]
% Inhibition F5000 (F5000 cells): 55 (100) % | % Inhibition H9 (H9 cells): 35 (200) %
